≈ marks a conversion by molar mass, not a printed value. Read-outs that look alike come from different tables or passages of the source.
Key:
[1] = test system: subgenomic genotype 1a (H77) replicon cell line; assay: HCV replicon assay, genotype 1a (Renilla luciferase); type: cell-based; conditions: Hepatitis C virus; genotype 1a replicon; read-out: G1a (EC50 μM)
Method: (§1) A genotype 1b (Con 1) subgenomic replicon cell line based on Blight et al., Science 2000 290: 1972-1974, modified to express a Renilla luciferase reporter gene was used to assess antiviral activity of test compounds. Cell cultures were maintained in a sub-confluent state in DMEM with glutamine, 10% heat-inactivated foetal bovine serum (FBS) and G418 (Geneticin®).
(§2) For assay, cells were seeded at a density of 7000 cells/well into 96 well tissue culture trays in culture media lacking G418. Compounds were tested in a three fold dilution series, for example starting from 50 uM. After 72 hours incubation at 37° C. and 5% CO2, Renilla luciferase activity was quantified via the Promega Renilla Luciferase or Renilla-Glo™ Luciferase Assay Systems (Promega corporation. The same method was employed for replicon assays using subgenomic genotype 1a (H77) and 2a (JFH-1) replicon cell lines with a seeding cell density of 5000 cells/well for the 2a cell lines.
(§3) The compound concentration that reduced luciferase activity by 50% (EC50) was calculated using non-linear regression.

[2] = test system: subgenomic genotype 2a (JFH-1) replicon cell line; assay: HCV replicon assay, genotype 2a (Renilla luciferase); type: cell-based; conditions: Hepatitis C virus; genotype 2a replicon; read-out: G2a (EC50 μM)
Method: as §1, §2, §3

[3] = test system: genotype 1b (Con 1) subgenomic replicon cell line; assay: HCV replicon assay, genotype 1b (Renilla luciferase); type: cell-based; conditions: Hepatitis C virus, genotype 1b replicon
Method: as §1, §2, §3

[4] = Cytotoxicity analysis (MTT); type: cell-based; conditions: genotype 1b replicon cells, three days, read-out: G1b (CC50 μM)
Method: Cytotoxicity of compounds against genotype 1b replicon cells was determined via metabolism of the vital dye 3-(4,5-dimethylthiaxol-2-yl)-2,5-diphenyltetrazolium bromide (MTT, for example see Watanabe et al., Journal of Virological Methods 1994 48:257-265). Plates were prepared as described for the HCV Replicon assay and cytotoxicity of the test article was evaluated after three days. MTT was added to assay plates followed by three hour incubation at 37° C. Wells were aspirated to dryness and the formazan dye dissolved by the addition of isopropanol. Absorbance values were read at 540/690 nm). The compound concentration that reduced cell viability by 50% (CC50) was calculated using non-linear regression.

1b (BK) NS5BΔ21 = target: T1, 1b (BK) NS5BΔ21 (Hepatitis C virus genotype 1b, UniProt P26663); assay: HCV Polymerase Inhibition Assay; type: biochemical
T1 construct: 100 nM, 1b (BK) NS5BΔ21
Method: HCV polymerase reactions were carried out using a modified method of Howe et al., Antimicrobial Agents and Chemotherapy 2004 48(12): 4813-4821. Reactions contained a final concentration of, 0.5% DMSO, 100 nM, 1b (BK) NS5BΔ21, 20 mM Tris-HCl pH 7.5, 5 mM MgCl2, 5 mM MnCl2, 3 mM DTT, 0.05% BSA, 0.2 U/μL RNasin, 10 μg/mL Poly(rC) template, GTP (at Km) and 0.05 μCi/μL ^33P-GTP in a total reaction volume of 50 μL. Compounds were tested in a three fold dilution series, for example starting from 50 μM. Reactions were initiated with the addition of GTP and terminated after 90 min with 50 μL ice cold 0.2 M EDTA. Terminated reactions were transferred to DEAE 96-well filter plates, unincorporated nucleotides washed from the filters and 50 μL scintillation fluid added prior to reading on a scintillation counter. The compound concentration that reduced ^33P-GTP incorporation by 50% (IC50) was calculated using non-linear regression.

[5] = Aqueous solubility (laser nephelometry); type: physicochemical; conditions: for solubility at 30 min: aqueous assay buffer with 1% DMSO, kinetic from dmso stock, 30 minute incubation at 25° C.; for solubility in words: at both pH2 and pH 6.5
Method: Test compounds prepared in DMSO were screened in duplicate over a range of concentrations (1.6-100 ug/mL) in different aqueous media (for example a pH6.5 buffers which are relevant to the stomach and upper regions of the small intestine and therefore important when predicting the amount of drug likely to be in solution following oral administration). Test compounds were serially diluted in 100% DMSO ranging from 10-0.16 mg/mL. These titrated DMSO stocks were then further diluted 1:100 with assay buffer and added to test plates (UV Star Griener 384 well plates), maintaining the DMSO concentration at 1%.

[6] = 72 hours, read-out: genotype 1b EC50 (μM) range
[7] = 1b polymerase IC50 (μM) range, genotype 1b NS5B, 33P-GTP incorporation
[8] = NS5B G1b (IC50 μM), genotype 1b polymerase
[9] = aqueous buffer, pH 6.5, 1% DMSO, read-out: Solubility pH 6.5
[10] = simulated gastric fluid, pH 2, 1% DMSO, read-out: Solubility pH 2

T1 sequence (P26663 2420-2989, stated change not applied): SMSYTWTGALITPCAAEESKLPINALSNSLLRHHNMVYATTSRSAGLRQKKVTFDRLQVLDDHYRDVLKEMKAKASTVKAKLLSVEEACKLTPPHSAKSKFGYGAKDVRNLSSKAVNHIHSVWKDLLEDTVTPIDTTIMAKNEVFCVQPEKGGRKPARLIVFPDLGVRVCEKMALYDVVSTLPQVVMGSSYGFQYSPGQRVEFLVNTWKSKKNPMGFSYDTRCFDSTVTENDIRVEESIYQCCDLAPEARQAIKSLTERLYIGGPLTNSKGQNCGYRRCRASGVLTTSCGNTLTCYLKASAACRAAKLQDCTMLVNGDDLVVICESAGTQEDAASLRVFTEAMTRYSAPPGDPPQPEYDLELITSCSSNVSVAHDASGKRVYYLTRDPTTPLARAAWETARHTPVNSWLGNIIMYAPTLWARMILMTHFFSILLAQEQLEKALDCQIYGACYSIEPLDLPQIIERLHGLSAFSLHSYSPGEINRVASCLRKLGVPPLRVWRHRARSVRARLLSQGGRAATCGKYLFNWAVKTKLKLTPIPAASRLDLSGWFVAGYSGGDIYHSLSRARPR

Row | SMILES | EC50 [1] | EC50 [2] | EC50 [3, 6] | EC50 ([3]; read-out: G1b (EC50 μM)) | CC50 at 3 days [4] | IC50 (1b (BK) NS5BΔ21; [7]) | IC50 (1b (BK) NS5BΔ21; [8]) | solubility at 30 min [5, 9] | solubility at 30 min [5, 10] | solubility in words [5] | times more potent than Compound A (1b (BK) NS5BΔ21; in each of the HCV assays tested (polymerase, replicon))
1 | CCN(c1cc2nn(-c3ccc(Cl)cn3)c(C(=O)NC)c2cc1C1CC1)S(C)(=O)=O [Compound 8, 2-(5-chloropyridin-2-yl)-5-cyclopropyl-6-[ethyl(methylsulfonyl)amino]-N-methyl-2H-indazole-3-carboxamide] | 0.016 µM | 0.04 µM | < 0.1 µM | 0.009 µM | > 50 µM | < 0.1 µM | 0.091 µM | – | – | – | –
2 | CNC(=O)c1c2cc(C3CC3)c(N(CCF)S(C)(=O)=O)cc2nn1-c1ccc(C)cn1 [Compound 7, 5-cyclopropyl-6-[(2-fluoroethyl)(methylsulfonyl)amino]-N-methyl-2-(5-methylpyridin-2-yl)-2H-indazole-3-carboxamide] | – | – | < 0.1 µM | – | – | 0.5 to 0.99 µM | – | – | – | – | –
3 | CNC(=O)c1c2cc(C3CC3)c(N(CCC3CN(C(C)=O)C3)S(C)(=O)=O)cc2nn1-c1ccc(C)cn1 [Compound 17, 6-[2-(1-acetylazetidin-3-yl)ethyl-methylsulfonyl-amino]-5-cyclopropyl-N-methyl-2-(5-methyl-2-pyridyl)indazole-3-carboxamide] | – | – | 0.1 to 0.49 µM | – | – | 0.5 to 0.99 µM | – | > 100 µg/mL | 50 to 100 µg/mL (≈ 95.3 to 191 µM) | – | –
4 | CNC(=O)c1c2cc(C3CC3)c(N(CCC3(OC)COC3)S(C)(=O)=O)cc2nn1-c1ccc(C)cn1 [Compound 18, 5-cyclopropyl-6-[2-(3-methoxyoxetan-3-yl)ethyl-methylsulfonyl-amino]-N-methyl-2-(5-methyl-2-pyridyl)indazole-3-carboxamide] | 0.031 µM | 0.305 µM | < 0.1 µM | 0.056 µM | > 50 µM | 0.1 to 0.49 µM | 0.188 µM | – | – | – | –
5 | CNC(=O)c1c2cc(C3CC3)c(N(C)S(C)(=O)=O)cc2nn1-c1cc(C)c(Cl)cn1 [Compound 15, 2-(5-chloro-4-methyl-2-pyridyl)-5-cyclopropyl-N-methyl-6-[methyl(methylsulfonyl)amino]indazole-3-carboxamide] | – | – | 0.1 to 0.49 µM | – | – | – | – | – | – | – | –
6 | CNC(=O)c1c2cc(C3CC3)c(N(C)S(C)(=O)=O)cc2nn1-c1ccc(Cl)cn1 [Compound 9, 2-(5-chloropyridin-2-yl)-5-cyclopropyl-N-methyl-6-[methyl(methylsulfonyl)amino]-2H-indazole-3-carboxamide] | 0.031 µM | 0.055 µM | < 0.1 µM | 0.008 µM | > 50 µM | < 0.1 µM | 0.054 µM | – | – | – | –
7 | CCN(c1cc2nn(-c3ccc(C)nc3)c(C(=O)NC)c2cc1C1CC1)S(C)(=O)=O [Compound A, 5-Cyclopropyl-6-[ethyl(methylsulfonyl)amino]-N-methyl-2-(6-methylpyridin-3-yl)-2H-indazole-3-carboxamide, reference compound] | 3.17 µM | 3.59 µM | – | 0.774 µM | > 50 µM | – | 3.36 µM | 6.3 to 12.5 µg/mL (≈ 14.7 to 29.2 µM) | < 1.6 µg/mL | very poorly soluble | –
8 | CNC(=O)c1c2cc(C3CC3)c(N(CCC3COC3)S(C)(=O)=O)cc2nn1-c1ccc(C)cn1 [Compound 4, 5-cyclopropyl-N-methyl-2-(5-methylpyridin-2-yl)-6-{(methylsulfonyl)[2-(oxetan-3-yl)ethyl]amino}-2H-indazole-3-carboxamide] | 0.035 µM | 0.293 µM | < 0.1 µM | 0.054 µM | > 50 µM | 0.1 to 0.49 µM | 0.388 µM | – | – | – | –
9 | CNC(=O)c1c2cc(C3CC3)c(N(C)S(C)(=O)=O)cc2nn1-c1ncc(C)s1 [Compound 13, 5-cyclopropyl-N-methyl-6-[methyl(methylsulfonyl)amino]-2-(5-methylthiazol-2-yl)indazole-3-carboxamide] | – | – | 0.1 to 0.49 µM | – | – | – | – | – | – | – | –
10 | CCN(c1cc2nn(-c3ccc(C)cn3)c(C(=O)NC)c2cc1C1CC1)S(C)(=O)=O [Compound 5, 5-cyclopropyl-6-[ethyl(methylsulfonyl)amino]-N-methyl-2-(5-methylpyridin-2-yl)-2H-indazole-3-carboxamide] | 0.068 µM | 0.147 µM | < 0.1 µM | 0.03 µM | > 50 µM | 0.1 to 0.49 µM | 0.283 µM | > 100 µg/mL | > 100 µg/mL | good solubility | at least 10 times
11 | CNC(=O)c1c2cc(C3CC3)c(N(CCC3COC3)S(C)(=O)=O)cc2nn1-c1ccc(Cl)cn1 [Compound 19, 2-(5-chloro-2-pyridyl)-5-cyclopropyl-N-methyl-6-[methylsulfonyl-[2-(oxetan-3-yl)ethyl]amino]indazole-3-carboxamide] | 0.011 µM | 0.019 µM | < 0.1 µM | 0.021 µM | > 50 µM | 0.1 to 0.49 µM | 0.131 µM | – | – | – | –
12 | CNC(=O)c1c2cc(C3CC3)c(N(CCO)S(C)(=O)=O)cc2nn1-c1ccc(C)cn1 [Compound 2, 5-cyclopropyl-6-[(2-hydroxyethyl)(methylsulfonyl)amino]-N-methyl-2-(5-methylpyridin-2-yl)-2H-indazole-3-carboxamide] | – | – | 0.1 to 0.49 µM | – | – | 1 to 10 µM | – | > 100 µg/mL | 50 to 100 µg/mL (≈ 113 to 225 µM) | – | –
13 | CNC(=O)c1c2cc(C3CC3)c(N(C)S(C)(=O)=O)cc2nn1-c1ccc(C)cn1 [Compound 6, 5-cyclopropyl-N-methyl-6-[methyl(methylsulfonyl)amino]-2-(5-methylpyridin-2-yl)-2H-indazole-3-carboxamide] | 0.044 µM | 0.024 µM | < 0.1 µM | 0.004 µM | > 50 µM | 0.1 to 0.49 µM | 0.31 µM | – | – | – | –
14 | CNC(=O)c1c2cc(C3CC3)c(N(C)S(C)(=O)=O)cc2nn1-c1ccccn1 [Compound 14, 5-cyclopropyl-N-methyl-6-[methyl(methylsulfonyl)amino]-2-(2-pyridyl)indazole-3-carboxamide] | – | – | 0.1 to 0.49 µM | – | – | – | – | – | – | – | –
15 | CNC(=O)c1c2cc(C3CC3)c(N(CCC3COC3C)S(C)(=O)=O)cc2nn1-c1ccc(C)cn1 (stereo not shown) [Compound 10, 5-cyclopropyl-N-methyl-6-{[2-(2-methyloxetan-3-yl)ethyl](methylsulfonyl)amino}-2-(5-methylpyridin-2-yl)-2H-indazole-3-carboxamide] | – | – | < 0.1 µM | – | – | 0.5 to 0.99 µM | – | – | – | – | –
16 | CNC(=O)c1c2cc(C3CC3)c(N(CCC3CN(C(=O)OC(C)(C)C)C3)S(C)(=O)=O)cc2nn1-c1ccc(C)cn1 [Compound 16, tert-butyl 3-[2-[[5-cyclopropyl-3-(methylcarbamoyl)-2-(5-methyl-2-pyridyl)indazol-6-yl]-methylsulfonyl-amino]ethyl]azetidine-1-carboxylate] | – | – | < 0.1 µM | – | – | 1 to 10 µM | – | – | – | – | –
17 | CNC(=O)c1c2cc(C3CC3)c(N(CC(F)F)S(C)(=O)=O)cc2nn1-c1ccc(C)cn1 [Compound 3, 5-cyclopropyl-6-[(2,2-difluoroethyl)(methylsulfonyl)amino]-N-methyl-2-(5-methylpyridin-2-yl)-2H-indazole-3-carboxamide] | – | – | < 0.1 µM | – | – | 0.5 to 0.99 µM | – | 50 to 100 µg/mL (≈ 108 to 216 µM) | 50 to 100 µg/mL (≈ 108 to 216 µM) | – | –
